Data reported in patent publication US20250304578A1, “NITROGEN-CONTAINING FUSED HETEROCYCLIC COMPOUNDS OF N-SULFONAMIDE AND USE THEREOF” (NUTSHELL THERAPEUTICS (SHANGHAI) CO., LTD., priority 2023, published 2025).
Like-named read-outs stand apart in the source and are kept apart here.

Columns and labels:
Type in all cases: in vitro ADME
[1] = Metabolic stability in liver microsomes; settings: for microsomal CLint at 1 μM: read-out: In vitro Clint (μL/min/mg protein); for half-life at 1 μM: read-out: In vitro t1/2
Protocol: The test compound and the positive control compound (dextromethorphan as a control compound) were dissolved respectively in DMSO to prepare a stock solution with a concentration of 10 mM, and the above stock solution was diluted into 200 μM working solution with DMSO. 8.709 g of potassium hydrogen phosphate (K2HPO4) was dissolved in 950 mL of water, and the pH value of the solution was adjusted to 7.4 with hydrochloric acid, and then the volume was adjusted to 1000 mL with water. After filtration using a 0.22 μm filter membrane, the mixture was stored in a 4° C. refrigerator for later use. After liver microsomes of various species (protein concentration of 20 mg/mL) were thawed in a 37° C. water bath, the liver microsomes were diluted with a phosphate buffer respectively to obtain a liver microsome working solution with protein concentration of 0.629 mg/mL. 5 mM NADPH solution was prepared using the above phosphate buffer for later use. 1 mg/mL stock solution of terfenadine/tolbutamide was prepared with DMSO and then diluted with a 50% methanol/50% acetonitrile mixed solution to a reaction stop solution containing 5/10 ng/mL (terfenadine/tolbutamide) internal standard.
238.5 μL of liver microsome working solutions of various species were added to a 1.1 mL microtube, and 1.5 μL of the test compound working solution or the positive control compound (dextromethorphan) working solution (200 μM) was added respectively, mixed well, and pre-incubated in a 37° C. water bath for 5 minutes. 60 μL of NADPH solution was added to start the reaction, and after mixing well, at the time points of 0, 5, 15, 30, and 60 minutes after the reaction, 30 μL of the reaction mixture was respectively pipetted and added to 300 μL of the reaction stop solution. Samples from all time points were vortexed vigorously for 1 minute and centrifuged at 4000 rpm for 15 minutes at 4° C. 100 μL of the supernatant was added to 100 μL of pure water and mixed well for LC-MS/MS analysis.
The slope (ke) was determined by plotting the natural logarithm of the percentage of compound remaining against time, and the Tin and intrinsic clearance (CLint) were calculated based on the first-order kinetic formula: […]
The compound remaining rate is calculated as follows:
Intrinsic clearance CLint (μL/min/mg protein)=0.693*1000/T1/2/protein concentration (0.5 mg protein/mL)

CYP3A4/5 [2] = assay: Multi-concentration inhibitory activity curve of CYP3A4/5 enzymes; settings: human liver microsomes
Protocol: (§1) The buffer was filtered through a 0.45 μm filter.
Liver microsome working solution (final system concentration of 0.5 mg/mL) was prepared. […] The above stock solution was diluted with acetonitrile (4-fold dilution, 6 non-zero concentrations).
The half-maximal inhibitory concentration (IC50) was calculated using Graph Pad Prism.

CYP3A4/5 [3] = assay: Inhibitory activity on CYP isoenzymes at a single concentration; settings: final compound concentration 10 μM, human liver microsomes
Source text: as §1

CYP2C9 = CYP2C9 (Homo sapiens (Human), UniProt P11712); assay: as above; settings: pH 7.4, probe diclofenac; final compound concentration 10 μM; human liver microsomes; substrate diclofenac; read-out: Inhibition rate (%) CYP2C9
Source text: as §1

CYP2D6 = CYP2D6 (Homo sapiens (Human), UniProt P10635); assay: as above; settings: pH 7.4, probe dextromethorphan; final compound concentration 10 μM; human liver microsomes; substrate dextromethorphan; read-out: Inhibition rate (%) CYP2D6
Source text: as §1

[4] = ICR/CD-1, pH 7.4, Mouse liver microsomes
[5] = Sprague Dawley, pH 7.4, Rat liver microsomes
[6] = pH 7.4, probe midazolam, substrate midazolam, read-out: CYP3A4/5 IC50 (μM) (Midazolam)
[7] = pH 7.4, probe testosterone, substrate testosterone, read-out: CYP3A4/5 IC50 (μM) (Testosterone)
[8] = pH 7.4, probe midazolam, substrate midazolam, read-out: Inhibition rate (%) CYP3A4/5 (Midazolam)

CYP2D6, sequence (P10635 whole entry): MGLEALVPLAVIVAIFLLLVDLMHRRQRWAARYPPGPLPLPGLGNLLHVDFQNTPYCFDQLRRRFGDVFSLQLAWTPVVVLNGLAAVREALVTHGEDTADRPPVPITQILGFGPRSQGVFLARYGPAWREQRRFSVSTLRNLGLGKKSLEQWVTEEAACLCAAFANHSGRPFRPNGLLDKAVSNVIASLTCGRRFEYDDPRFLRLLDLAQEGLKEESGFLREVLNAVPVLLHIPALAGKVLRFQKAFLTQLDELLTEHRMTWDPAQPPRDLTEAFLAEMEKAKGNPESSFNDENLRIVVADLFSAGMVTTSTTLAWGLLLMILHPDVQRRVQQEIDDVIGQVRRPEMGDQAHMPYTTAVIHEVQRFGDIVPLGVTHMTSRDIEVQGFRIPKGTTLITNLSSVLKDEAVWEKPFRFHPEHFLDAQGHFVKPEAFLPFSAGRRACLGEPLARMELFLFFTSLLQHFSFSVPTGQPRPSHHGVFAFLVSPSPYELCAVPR
CYP2C9, sequence (P11712 whole entry): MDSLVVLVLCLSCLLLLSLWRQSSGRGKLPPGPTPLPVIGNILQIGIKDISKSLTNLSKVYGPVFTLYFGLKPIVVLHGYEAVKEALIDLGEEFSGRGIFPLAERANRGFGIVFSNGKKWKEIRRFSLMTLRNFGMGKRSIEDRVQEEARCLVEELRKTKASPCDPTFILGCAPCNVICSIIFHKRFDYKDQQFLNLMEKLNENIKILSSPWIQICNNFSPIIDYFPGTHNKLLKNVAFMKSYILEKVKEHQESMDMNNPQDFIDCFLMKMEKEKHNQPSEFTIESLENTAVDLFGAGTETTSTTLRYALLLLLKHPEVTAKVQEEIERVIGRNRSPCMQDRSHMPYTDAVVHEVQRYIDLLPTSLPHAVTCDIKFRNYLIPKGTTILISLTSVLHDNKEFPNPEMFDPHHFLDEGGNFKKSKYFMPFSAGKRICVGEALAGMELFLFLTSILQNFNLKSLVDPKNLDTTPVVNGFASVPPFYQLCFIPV

| microsomal CLint at 1 μM [1, 4] [µL/min/mg] | half-life at 1 μM [1, 4] [h] | microsomal CLint at 1 μM [1, 5] [µL/min/mg] | half-life at 1 μM [1, 5] [h] | microsomal CLint at 1 μM ([1]; pH 7.4, Human liver microsomes) [µL/min/mg] | half-life at 1 μM ([1]; pH 7.4, Human liver microsomes) [h] | IC50 at 10 min (CYP3A4/5 [2]; [6]) [µM] | IC50 at 10 min (CYP3A4/5 [2]; [7]) [µM] | inhibition at 10 min, 10 µM (CYP3A4/5 [3]; [8]) [%] | inhibition at 10 min, 10 µM (CYP2C9) [%] | inhibition at 10 min, 10 µM (CYP2D6) [%] | inhibition at 10 min, 10 µM (CYP3A4/5 [3]; pH 7.4, probe testosterone, substrate testosterone, NI: no inhibition, read-out: Inhibition rate (%) CYP3A4/5 (Testosterone)) [%] | SMILES |
| --- | --- | --- | --- | --- | --- | --- | --- | --- | --- | --- | --- | --- |
| 12.6 | 1.83 | 11.7 | 1.98 | < 5.4 | > 4.27 | > 50 | > 50 | 8.7 | 8.9 | 7.2 |  | [2H]C([2H])([2H])Oc1nc(C(=O)NS(C)(=O)=O)ccc1NCC#Cc1cc2c(N[C@@H]3CCN(C)C[C@@H]3F)cccn2c1CC(F)(F)F [Cpd-2, 5-((3-(8-(((3S,4R)-3-Fluoro-1-methylpiperidin-4-yl)amino)-3-(2,2,2-trifluoroethyl)indolizin-2-yl)prop-2-yn-1-yl)amino)-6-(methoxy-d3)-N-(methylsulfonyl)picolinamide] |
| 13.7 | 1.2 | 35 | 0.467 | 7.3 | 2.27 | > 50 | > 50 | 9.8 | 6.7 | 1.6 | 3.7 | COc1nc(C(=O)NS(C)(=O)=O)ccc1NCC#Cc1cc2c(N[C@@H]3CCN(C)C[C@@H]3F)cccn2c1CC(F)(F)F [Cpd-1, 5-((3-(8-(((3S,4R)-3-Fluoro-1-methylpiperidin-4-yl)amino)-3-(2,2,2-trifluoroethyl)indolizin-2-yl)prop-2-yn-1-yl)amino)-6-methoxy-N-(methylsulfonyl)picolinamide] |
